Experimental data as given in patent publication US9763961B2, “Compositions that modulate the activity of estrogen receptors and estrogen-related receptors and methods for use” (CITY OF HOPE, priority 2005, dated 2017).
Entries after “also recorded” stand apart in the source; their conditions may differ.

Assays:
human ERRα-1 = molecular target: T1, human ERRα-1 (Homo sapiens, UniProt P11474); test: Transient transfection luciferase assay, full length human ERRα with SF1-SV40-Luc reporter in HeLa cells; assay type: cell-based; conditions: for Antagonism of constitutive activity of ERRα (in words) / IC50: HeLa cells; for Antagonism of constitutive activity of ERRα (in words): SF1 binding site reporter, FIG. 1; for IC50: pSG5-ERRα, 24 h, mean ± SD
T1 construct: expressed in transfected cells; host or cells: HeLa
T1 sequence (P11474 1-423): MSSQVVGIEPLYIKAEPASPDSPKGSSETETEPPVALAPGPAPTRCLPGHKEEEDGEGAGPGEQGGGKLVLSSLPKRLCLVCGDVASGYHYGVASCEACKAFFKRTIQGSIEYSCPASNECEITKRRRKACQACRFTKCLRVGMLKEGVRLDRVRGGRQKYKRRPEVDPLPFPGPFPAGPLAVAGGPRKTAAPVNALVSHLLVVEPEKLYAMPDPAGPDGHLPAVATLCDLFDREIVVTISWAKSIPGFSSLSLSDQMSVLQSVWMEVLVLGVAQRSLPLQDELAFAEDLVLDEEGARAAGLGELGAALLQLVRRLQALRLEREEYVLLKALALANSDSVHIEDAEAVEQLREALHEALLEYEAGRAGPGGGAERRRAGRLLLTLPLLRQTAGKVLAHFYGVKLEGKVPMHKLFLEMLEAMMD
Protocol: HeLa cells were cultured in MEM Earle's salts medium supplemented with 5% charcoal/dextran-treated fetal bovine serum. Cells were then divided and cultured in 6-well plates until 80% confluence was achieved. The cells were next transfected with 4 μg Lipofectin. An equal amount of total DNA was used in all transfections by including appropriate amounts of the empty vector, pSG5, in addition to specific amounts of pSG5-ERRα and luciferase reporter plasmids (ERRE (ERRα recognizes an ERE half site)-containing reporter and aromatase promoter I.3-containing reporter). Following an overnight incubation, the medium containing Lipofectin and DNA was removed, and the cells cultured in a growth medium containing 5% charcoal/dextran-treated fetal bovine serum with or without ligands. After a 24-hour incubation, the cells was harvested from the plates by scraping, and the luciferase activities in the cell lysates (with the same amounts of protein) was measured according to the manufacturer's instructions (Promega). All experiments were performed in triplicate.
To evaluate the functional significance of the interaction of chalcones with ERRα, we incubated these compounds with HeLa cells which were transiently transfected with human ERRα expression plasmid and a luciferase reporter plasmid containing SF1 binding site. […] In order to confirm the results above, HeLa cells were transiently transfected with GAL4-human ERRα LBD fusion expression plasmid and a luciferase reporter plasmid containing GAL4 binding site. […] Most of the compounds, however, have similar IC50 value, and have a similar potency.
Referring to FIG. 1, HeLa cells were cotransfected with pSG5-ERRα (0.5 μg) and luciferase reporter plasmid containing SF1 binding site and SV40 promoter (0.25 μg). The transfected cells were incubated with Compound No. 1-9 for 24 h. After cells were washed with 1× PBS, luciferase activity was measured. Values represent the mean±SD.

ERα = molecular target: T2, ERα (Homo sapiens, UniProt P03372); test: Transient transfection luciferase assay with pSG5-ERa and ERE-SV40 reporter in HeLa cells, with 100 pM estradiol; assay type: cell-based; conditions: for IC50: HeLa cells, in the presence of 100 pM of estradiol, 24 h; for Antagonistic properties on ERa (in words): transient transfection
T2 construct: expressed in transfected cells; host or cells: HeLa
T2 sequence (P03372 1-595): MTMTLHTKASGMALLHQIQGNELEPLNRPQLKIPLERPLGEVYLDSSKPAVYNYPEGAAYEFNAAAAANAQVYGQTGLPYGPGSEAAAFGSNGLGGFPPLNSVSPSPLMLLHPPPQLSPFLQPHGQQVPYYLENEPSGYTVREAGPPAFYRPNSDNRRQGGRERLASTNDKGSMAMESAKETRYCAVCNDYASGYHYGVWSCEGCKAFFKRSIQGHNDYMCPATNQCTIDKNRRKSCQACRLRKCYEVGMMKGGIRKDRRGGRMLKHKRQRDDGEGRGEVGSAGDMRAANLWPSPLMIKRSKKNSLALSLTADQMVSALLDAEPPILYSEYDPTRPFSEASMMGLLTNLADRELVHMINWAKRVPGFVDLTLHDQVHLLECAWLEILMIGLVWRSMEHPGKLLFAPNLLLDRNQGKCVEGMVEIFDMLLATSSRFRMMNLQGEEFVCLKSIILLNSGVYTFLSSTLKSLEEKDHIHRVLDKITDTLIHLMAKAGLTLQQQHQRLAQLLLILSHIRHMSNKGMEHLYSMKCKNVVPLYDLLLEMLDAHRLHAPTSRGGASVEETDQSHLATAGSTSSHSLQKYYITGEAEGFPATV

ERRβ = molecular target: T3, ERRβ (Homo sapiens, UniProt O95718); test: Transient transfection luciferase assay with pSG5-ERRb and SF1-SV40 reporter in HeLa cells; assay type: cell-based; conditions: for IC50: HeLa cells, 24 h, average of at least two experiments; for Antagonistic properties on ERRb (in words): transient transfection
T3 construct: expressed in transfected cells; host or cells: HeLa
T3 sequence (O95718 1-433): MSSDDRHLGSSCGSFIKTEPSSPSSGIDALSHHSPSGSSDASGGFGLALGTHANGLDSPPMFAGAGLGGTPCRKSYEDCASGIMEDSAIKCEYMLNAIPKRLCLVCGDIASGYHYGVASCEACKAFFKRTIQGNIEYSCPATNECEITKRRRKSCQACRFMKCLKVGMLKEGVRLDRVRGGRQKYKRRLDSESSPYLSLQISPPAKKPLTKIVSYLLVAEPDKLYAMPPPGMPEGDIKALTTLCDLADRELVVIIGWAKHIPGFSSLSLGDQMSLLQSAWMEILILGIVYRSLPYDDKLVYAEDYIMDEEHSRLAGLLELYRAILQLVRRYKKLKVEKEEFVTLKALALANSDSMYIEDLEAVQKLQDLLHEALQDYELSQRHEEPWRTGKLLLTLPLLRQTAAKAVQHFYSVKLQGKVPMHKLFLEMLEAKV

ERβ = molecular target: T4, ERβ (Homo sapiens, UniProt Q92731); test: Transient transfection luciferase assay with pCI-ERb and ERE-SV40 reporter in HeLa cells, with 100 pM estradiol; assay type: cell-based; conditions: for IC50: HeLa cells, in the presence of 100 pM of estradiol, 24 h; for Antagonistic properties on ERb (in words): transient transfection
T4 construct: expressed in transfected cells; host or cells: HeLa

ERRα = molecular target: T5, ERRα (Homo sapiens, UniProt P11474); test: Competitive [3H] genistein binding whole cell assay in ERRα-positive SK-BR-3 cells; set-up: endogenous in cells; host or cells: SK-BR-3; conditions: FIG. 4
T5 sequence (P11474 1-423): T1 sequence (P11474 1-423)
Protocol: In order to directly measure the binding affinities of agonists and inverse agonists to ERRα, we performed a competitive ERR binding whole cell assay using ERRα-positive SK-BR-3 cells. This method is developed based on the ER binding assay posted by the National Toxicology Program at the NIEHS <<http://iccvam.niehs.nih.gov/methods/endodocs/final/erbndbrd/erbdappx/B1.pdf>>. […] After the cells were washed twice with PBS, 250 μl ethanol will be added to each well for 20 min. Aliquots of ethanol extract was mixed with scintillation liquid for radioactivity measurements. The experiments have been performed in triplicate.
In addition to reporter activity assay, in order to evaluate the interaction of chalcones with ERRα, a competitive binding assay was performed.
Referring to FIG. 4, SK-BR-3 cells, which are positive for ERRα, were incubated with 1 μM of [3H] GEN and increasing concentrations of unlabeled GEN or Compound Nos. 1-9 or 7-5. After 1 h of incubation, the cells were washed with 1× PBS, and [3H] GEN was then extracted from the cells by an incubation of 30 min in 250 μl of ethanol. Values represent the mean±SD.

T4 sequence (Q92731 whole entry, species assumed): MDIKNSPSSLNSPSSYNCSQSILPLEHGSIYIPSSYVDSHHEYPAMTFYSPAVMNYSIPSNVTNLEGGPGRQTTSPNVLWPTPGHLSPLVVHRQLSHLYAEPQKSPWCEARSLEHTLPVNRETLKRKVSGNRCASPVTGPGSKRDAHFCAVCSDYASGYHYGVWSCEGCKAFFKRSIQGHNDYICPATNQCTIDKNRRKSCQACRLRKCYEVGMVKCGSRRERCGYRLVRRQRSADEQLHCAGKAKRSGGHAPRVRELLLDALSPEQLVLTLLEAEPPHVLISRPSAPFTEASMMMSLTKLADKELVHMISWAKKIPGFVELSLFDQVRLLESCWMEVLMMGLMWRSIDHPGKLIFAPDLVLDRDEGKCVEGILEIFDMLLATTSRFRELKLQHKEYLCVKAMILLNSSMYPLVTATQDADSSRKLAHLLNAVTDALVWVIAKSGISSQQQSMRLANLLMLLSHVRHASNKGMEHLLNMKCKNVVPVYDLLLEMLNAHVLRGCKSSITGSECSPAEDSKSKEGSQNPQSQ

Row | Structure (SMILES) | Rank of potency as antagonist of ERRα among the chalcones (human ERRα-1) | Antagonism of constitutive activity of ERRα (in words) (human ERRα-1) | IC50 (human ERRα-1) [µM] | IC50 (ERα) [µM] | Antagonistic properties on ERa (in words) (ERα) | IC50 (ERRβ) [µM] | Antagonistic properties on ERRb (in words) (ERRβ) | IC50 (ERβ) [µM] | Antagonistic properties on ERb (in words) (ERβ) | Inhibition of binding of [3H] labeled genistein (in words) (ERRα)
1 | COc1cccc(/C=C/C(=O)c2ccc(O)cc2O)c1OC [Compound No. 1-9, 2′,4′-Dihydroxy-2,3-dimethoxychalcone] | most potent antagonist among these chalcones; also recorded: more potent antagonist of ERRα among these seven chalcones | antagonists of ERRα | 5.7 ± 1.8 | 3.3 | showed antagonistic properties | 3.5 | showed antagonistic properties | 4.6 | showed antagonistic properties | competitively inhibited the binding of [3H] labeled genistein in a dose-dependent manner
2 | O=C(/C=C/c1ccccc1O)c1ccc(O)cc1O [Compound No. 7-5, 2,2′,4′-Trihydroxychalcone] | more potent antagonist of ERRα among these seven chalcones | antagonists of ERRα | 6.2 ± 1 | 3.7 | showed antagonistic properties | 6.7 | showed antagonistic properties | 7.4 | showed antagonistic properties | competitively inhibited the binding of [3H] labeled genistein in a dose-dependent manner
